The results in this text go back to US20230265151A1, “GIP/GLP1 CO-AGONIST COMPOUNDS” (priority 2020, published 2023).

As usually defined, the Ki is a measure of affinity in units of concentration, obtained from inhibition or displacement. For orientation: Emax means the size of the effect at its maximum, as opposed to the concentration needed. In general, EC50 refers to the concentration needed to bring the measured effect to its halfway point.

Like-named read-outs stand apart in the source and are kept apart here. A value given as a limit tells only on which side of the number the result lay.

Assay [1] deals with T1, human GIP receptor (hGIPR) (Homo sapiens, UniProt P48546).
T1 construct: expressed in transfected cells; crude membranes
T1 sequence (P48546 22-466): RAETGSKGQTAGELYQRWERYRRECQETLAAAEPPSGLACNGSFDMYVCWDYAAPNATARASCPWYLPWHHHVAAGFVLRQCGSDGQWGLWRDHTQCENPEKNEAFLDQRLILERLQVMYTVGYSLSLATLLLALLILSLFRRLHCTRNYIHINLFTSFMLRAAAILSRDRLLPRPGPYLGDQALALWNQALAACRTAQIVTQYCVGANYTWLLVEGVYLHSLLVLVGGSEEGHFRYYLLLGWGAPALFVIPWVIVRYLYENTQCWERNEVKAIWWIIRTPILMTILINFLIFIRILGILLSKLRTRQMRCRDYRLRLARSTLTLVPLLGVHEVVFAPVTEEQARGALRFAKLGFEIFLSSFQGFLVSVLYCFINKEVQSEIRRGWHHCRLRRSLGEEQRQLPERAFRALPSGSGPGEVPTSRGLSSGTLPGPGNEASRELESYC
As to the kind of experiment: [125I]-GIP binding, SPA with membranes of CHO cells expressing hGIPR. The settings on record: human GIPR; geometric mean (SEM, n); read-out: Binding Affinity Ki, nM (SEM, n) hGIPR. Here is the method: Two methods are used for the preparation of crude cell membranes.
Method 1: Frozen cell pellets are lysed on ice in hypotonic buffer containing 50 mM Tris HCl, pH 7.5, and Roche Complete™ Protease Inhibitors with EDTA. […] The homogenate is centrifuged at 4° C. at 1100 × g for 10 minutes. The supernatant is collected and stored on ice while the pellets are resuspended in homogenization buffer and rehomogenized as described above. The homogenate is centrifuged at 1100 × g for 10 minutes. The second supernatant is combined with the first supernatant and centrifuged at 35000 × g for 1 hour at 4° C. The resulting membrane pellet is resuspended in homogenization buffer containing protease inhibitors at approximately 1 to 3 mg/mL, quick frozen in liquid nitrogen and stored as aliquots in a -80° C. freezer until use.
The homogenate is centrifuged at 4° C. at 1800 × g for 15 minutes. The supernatant is collected and stored on ice while the pellets are resuspended in homogenization buffer (without DNAse I) and rehomogenized as described above. The homogenate is centrifuged at 1800 × g for 15 minutes. The second supernatant is combined with the first supernatant and centrifuged an additional time at 1800 × g for 15 minutes. The overall supernatant is then centrifuged at 25000 × g for 30 minutes at 4° C. The resulting membrane pellet is resuspended in homogenization buffer (without DNAse I) containing protease inhibitors at approximately 1 to 3 mg/mL and stored as aliquots in a -80° C. freezer until use.
The binding buffer contains 25 mM HEPES, pH 7.4, 2.5 mM CaCl2, 1 mM MgCl2, 0.1% (w/v) bacitracin, 0.003% (w/v) TWEEN®-20, and Roche Complete™ Protease Inhibitors without EDTA. Peptides and GIP are thawed and 3 fold serially diluted in 100% DMSO (10 point concentration response curves). […] Plates are sealed and mixed on a plate shaker (setting 6) for 1 minute and read with a PerkinElmer Trilux MicroBeta® scintillation counter after 2.5 to 12 hours of incubation/settling time at room temperature.
Raw CPM data for concentration curves of peptides, Gcg, GLP-1, or GIP are converted to percent inhibition by subtracting nonspecific binding (binding in the presence of excess unlabeled Gcg, GLP-1, or GIP, respectively) from the individual CPM values and dividing by the total binding signal, also corrected by subtracting nonspecific binding. Data are analyzed using four-parameter (curve maximum, curve minimum, IC50, Hill slope) nonlinear regression routines (Genedata Screener, version 12.0.4, Genedata AG, Basal, Switzerland). […] Values for Ki are reported as the geometric mean, with error expressed as the standard error of the mean (SEM) and n is equal to the number of independent replicates (determined in assays performed on different days). Geometric Means are calculated as follows: […]
The Ki Ratio (Ki for native control peptide/Ki for test compound) at each receptor and each species is calculated. The Ki Ratio is a rapid indication of the apparent affinity of a peptide compared to the native control peptide.
n=⅟x means that only one value out of the total number of replicates (x) is used to express the mean. SEM is only calculated when n=2 or greater non-qualified results exist. Means are expressed as GeoMetric means with the standard error of the mean (SEM) and the number of replicates (n) indicated in parenthesis.

Assay [2] addresses T2, hGIPR (Homo sapiens, UniProt P48546).
T2 construct: expressed in transfected cells
T2 sequence (P48546 22-466): T1 sequence (P48546 22-466)
As to the kind of experiment: Functional cAMP formation (HTRF) in HEK-293 clonal cells expressing hGIPR, 0.1% bovine casein, without or with 1.0% human serum albumin. The assay is classed as cell-based. The settings on record: 37° C.; for Emax: read-out: hGIPR Emax, % ± SEM; for EC50: geometric mean, read-out: hGIPR EC50, nM (SEM, n). A digest of the protocol:
(§1)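 Readings of the HTRF 665/620 nm ratio, which falls as cAMP rises, were converted to nM cAMP using a standard curve after 30 min peptide exposure at 37° C.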
For orientation: Changes in cAMP serve as a functional read-out for many G protein-coupled receptors.

Assay [3] addresses T3, hGCGR (Homo sapiens, UniProt P47871).
T3 construct: expressed in transfected cells
As to the kind of experiment: Functional cAMP formation (HTRF) in HEK-293 clonal cells expressing hGCGR, 0.1% bovine casein, without or with 1.0% human serum albumin. The format is cell-based. The conditions noted are these: read-out: hGCGR EC50, nM (SEM, n). The procedure, abridged:
as §1

Assay [4] deals with hGLP-1R (Homo sapiens, UniProt P43220). Kind of assay: Functional cAMP formation (HTRF) in HEK-293 clonal cells expressing hGLP-1R, 0.1% bovine casein, without or with 1.0% human serum albumin. The assay is classed as cell-based. The conditions noted are these: for Emax: read-out: hGLP-1R Emax, % ± SEM; for EC50: cAMP, 0.1% bovine casein (no human serum albumin), geometric mean, read-out: hGLP-1R EC50, nM (SEM, n). The arrangement: expressed in transfected cells. A digest of the protocol:
as §1

Sequence of hGLP-1R (P43220 24-463): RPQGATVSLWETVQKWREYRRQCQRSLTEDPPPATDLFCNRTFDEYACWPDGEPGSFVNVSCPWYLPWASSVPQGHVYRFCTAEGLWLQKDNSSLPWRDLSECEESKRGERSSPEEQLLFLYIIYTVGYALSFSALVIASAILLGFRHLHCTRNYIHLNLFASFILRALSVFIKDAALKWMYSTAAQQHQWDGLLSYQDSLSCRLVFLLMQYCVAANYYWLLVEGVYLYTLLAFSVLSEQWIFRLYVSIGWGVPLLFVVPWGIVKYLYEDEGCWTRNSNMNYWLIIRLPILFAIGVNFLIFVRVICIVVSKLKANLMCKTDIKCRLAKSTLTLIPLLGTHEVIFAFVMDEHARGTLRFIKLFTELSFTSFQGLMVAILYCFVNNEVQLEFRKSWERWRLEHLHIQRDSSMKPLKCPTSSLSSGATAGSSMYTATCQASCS
T3 sequence (P47871 26-477): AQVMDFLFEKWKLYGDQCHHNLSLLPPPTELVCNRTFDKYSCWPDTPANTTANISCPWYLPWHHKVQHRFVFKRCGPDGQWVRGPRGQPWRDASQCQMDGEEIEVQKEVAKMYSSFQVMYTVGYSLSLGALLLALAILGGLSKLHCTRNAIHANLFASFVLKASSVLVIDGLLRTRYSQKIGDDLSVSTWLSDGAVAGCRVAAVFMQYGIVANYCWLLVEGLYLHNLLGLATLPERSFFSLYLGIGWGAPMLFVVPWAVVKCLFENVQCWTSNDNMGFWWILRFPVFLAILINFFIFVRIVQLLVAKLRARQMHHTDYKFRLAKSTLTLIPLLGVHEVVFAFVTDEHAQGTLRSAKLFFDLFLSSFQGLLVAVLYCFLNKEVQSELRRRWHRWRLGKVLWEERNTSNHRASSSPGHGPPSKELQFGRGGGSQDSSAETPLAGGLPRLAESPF

For `CCCCCCCCCCCC(=O)N[C@@H](CCC(=O)NCCOCCOCC(=O)NCCOCCOCC(=O)NCCOCCOCC(=O)NCCCC[C@H](NC(=O)[C@H](CCCN)NC(=O)[C@H](CC(=O)O)NC(=O)[C@H](CC(C)C)NC(=O)[C@](C)(CC(C)C)NC(=O)[C@@H](NC(=O)C(C)(C)NC(=O)[C@H](CCCCNC(=O)COCCOCCNC(=O)COCCOCCNC(=O)COCCOCCNC(=O)CC[C@H](NC(=O)CCCCCCCCCCC)C(=O)O)NC(=O)[C@H](CC(=O)O)NC(=O)[C@H](CO)NC(=O)[C@@H](NC(=O)[C@](C)(Cc1ccccc1F)NC(=O)[C@@H](NC(=O)CNC(=O)[C@H](CCC(=O)O)NC(=O)C(C)(C)NC(=O)[C@@H](N)Cc1ccc(O)cc1)[C@@H](C)O)[C@@H](C)O)[C@@H](C)CC)C(=O)N[C@@H](C)C(=O)N[C@@H](CCC(N)=O)C(=O)NC(C)(C)C(=O)N[C@@H](CCC(=O)O)C(=O)N[C@@H](Cc1ccccc1)C(=O)N[C@H](C(=O)N[C@H](CCC(=O)O)C(=O)N[C@@](C)(Cc1ccc(O)cc1)C(=O)N[C@@H](CC(C)C)C(=O)N[C@H](C(=O)N[C@@H](CCC(=O)O)C(=O)NCC(=O)NCC(=O)N1CCC[C@H]1C(=O)N[C@@H](CO)C(=O)N[C@@H](CO)C(=O)NCC(=O)N[C@@H](C)C(=O)N1CCC[C@H]1C(=O)N1CCC[C@H]1C(=O)N1CCC[C@H]1C(=O)N[C@@H](CO)C(N)=O)[C@@H](C)CC)[C@@H](C)CC)C(=O)O` [Example 421], the Ki in assay [1] was found to be 0.0245 nM. Moreover, the Emax in assay [2] (HEK293, cAMP, 0.1% bovine casein and 1.0% human serum albumin, percent of maximal response to GIP(1-42)NH2) stood at 98%; in assay [2] (HEK293, cAMP, 0.1% bovine casein, percent of maximal response to GIP(1-42)NH2, arithmetic mean), 100%; in assay [4] (HEK293, cAMP, 37° C., 0.1% bovine casein and 1.0% human serum albumin, percent of maximal response to GLP-1(7-36)NH2) it was 105%. Besides, the EC50 is 0.00618 nM in assay [2] (cAMP, 0.1% bovine casein (no human serum albumin)); greater than 9950 nM in assay [3] (cAMP, 37° C., 0.1% bovine casein (no human serum albumin), geometric mean); greater than 9950 nM in assay [3] (cAMP, 37° C., 0.1% bovine casein and 1.0% human serum albumin, geometric mean (SEM, n)); 0.057 nM in assay [4] (37° C.).
Turning to `CCCC[C@H](NC(=O)[C@H](CC(=O)O)NC(=O)[C@H](CO)NC(=O)[C@@H](NC(=O)[C@](C)(Cc1ccccc1F)NC(=O)[C@@H](NC(=O)CNC(=O)[C@H](CCC(=O)O)NC(=O)C(C)(C)NC(=O)[C@@H](N)Cc1ccc(O)cc1)[C@@H](C)O)[C@@H](C)O)C(=O)N[C@@H](CO)C(=O)N[C@H](C(=O)N[C@@](C)(CC(C)C)C(=O)N[C@@H](CC(C)C)C(=O)N[C@@H](CC(=O)O)C(=O)N[C@@H](CCCN)C(=O)N[C@@H](CCCCNC(=O)COCCOCCNC(=O)COCCOCCNC(=O)CC[C@H](NC(=O)CCCCCCCCCCCCC(=O)O)C(=O)O)C(=O)N[C@@H](C)C(=O)N[C@@H](CCC(N)=O)C(=O)NC(C)(C)C(=O)N[C@@H](CCC(=O)O)C(=O)N[C@@H](Cc1ccccc1)C(=O)N[C@H](C(=O)N[C@H](CCC(=O)O)C(=O)N[C@@](C)(Cc1ccc(O)cc1)C(=O)N[C@@H](CC(C)C)C(=O)N[C@H](C(=O)N[C@@H](CCC(=O)O)C(=O)NCC(=O)NCC(=O)N[C@@H](CCCCNC(=O)COCCOCCNC(=O)COCCOCCNC(=O)CC[C@H](NC(=O)CCCCCCCCCCCCC(=O)O)C(=O)O)C(=O)N[C@@H](CO)C(=O)N[C@@H](CO)C(=O)NCC(=O)N[C@@H](C)C(=O)N1CCC[C@H]1C(=O)N1CCC[C@H]1C(=O)N1CCC[C@H]1C(=O)N[C@@H](CO)C(N)=O)[C@@H](C)CC)[C@@H](C)CC)[C@@H](C)CC` [Example 60], the Ki in assay [1] is 0.11 nM. The EC50 in assay [2] (0.1% bovine casein and 1.0% human serum albumin) was 1.2 nM; in assay [3] (0.1% bovine casein and 1.0% human serum albumin, 37° C., geometric mean), greater than 9950 nM; in assay [3] (cAMP, incubated at 37° C., 0.1% bovine casein (no human serum albumin), geometric mean), greater than 9950 nM; in assay [4] (incubated at 37° C.), 0.19 nM. Besides, the Emax in assay [2] (HEK293, 0.1% bovine casein and 1.0% human serum albumin, percent of maximal response to GIP(1-42)NH2) was 89.4 ± 4.57%; in assay [2] (HEK293, percent of maximal response to GIP(1-42)NH2, 0.1% bovine casein, arithmetic mean) it was 94 ± 6.07%; in assay [4] (HEK293, 0.1% bovine casein and 1.0% human serum albumin, 37° C., percent of maximal response to GLP-1(7-36)NH2), 111 ± 3.97%; in assay [4] (HEK293, percent of maximal response to GLP-1(7-36)NH2, 37° C., 0.1% bovine casein, arithmetic mean), 97.2 ± 4.28%.
